Here are results for 56 compounds from ChEMBL document CHEMBL2163289, “The discovery of N-[5-(4-bromophenyl)-6-[2-[(5-bromo-2-pyrimidinyl)oxy]ethoxy]-4-pyrimidinyl]-N'-propylsulfamide (Macitentan), an orally active, potent dual endothelin receptor antagonist” (J Med Chem, 2012).

For orientation: IC50 means the point on the concentration scale where inhibition reaches its midpoint. One may read the Cmax as the maximum level reached in the sampled fluid or tissue.

In one data set the target is T1, Endothelin-1 receptor (Homo sapiens, UniProt P25101).
T1 sequence (P25101 whole entry): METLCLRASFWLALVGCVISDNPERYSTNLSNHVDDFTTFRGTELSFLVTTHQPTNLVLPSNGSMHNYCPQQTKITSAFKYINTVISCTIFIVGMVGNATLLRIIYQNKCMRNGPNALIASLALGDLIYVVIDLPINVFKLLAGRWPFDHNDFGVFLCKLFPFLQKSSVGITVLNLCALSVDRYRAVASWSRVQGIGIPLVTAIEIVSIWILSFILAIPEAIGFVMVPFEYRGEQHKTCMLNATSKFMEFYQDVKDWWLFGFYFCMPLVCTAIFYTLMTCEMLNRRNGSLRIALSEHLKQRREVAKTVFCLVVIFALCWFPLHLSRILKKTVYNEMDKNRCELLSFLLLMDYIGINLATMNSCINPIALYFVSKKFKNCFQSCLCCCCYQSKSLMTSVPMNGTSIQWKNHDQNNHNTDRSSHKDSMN
Nature of the data set: Displacement of [I125]ET1 from recombinant ETA receptor expressed in CHO cells after 2 hrs by TopCount analysis. The format is cell-based.

Data set [1] concerns Rattus norvegicus. Nature of the data set: Antihypertensive activity in telemeterized hypertensive Dahl salt-sensitive rat assessed as reduction in mean arterial blood pressure at 3 mg/kg, po measured over 6 hrs. Type of data set: functional, Artery.
The subject of data set [2] is Rattus norvegicus. Nature of the data set: Effect on heart rate in telemeterized hypertensive Dahl salt-sensitive rat at 3 mg/kg, po.
Data set [3] concerns Rattus norvegicus. Nature of the data set: Cmax in Wistar rat assessed as N-[5-(4-Bromophenyl)-6-[2-[(5-bromo-2-pyrimidinyl)oxy]ethoxy]-4-pyrimidinyl]-sulfamide level at 10 mg/kg, po at 6 hrs. The format is ADME, organism-based. The arrangement: dose 10 mg/kg, route oral. To be noted: in vivo.

The source made the active and inactive calls. The rule behind the calls is not given here. Where a SMILES comes first, the peptide text is derived from it. [ ]: non-standard residue; d: D form. Some results are limits rather than exact numbers.

`COc1ccccc1Oc1c(NS(=O)(=O)CCc2ccccc2)nc(-c2ncccn2)nc1OCCOc1ncc(SC)cn1`: the IC50 at Endothelin-1 receptor was determined as 1.1 nM.
As to `CCNS(=O)(=O)Nc1ncnc(OCCOc2ncc(Br)cn2)c1-c1ccc(Br)cc1`, the “Fall in mean arterial blood pressure” value in the data set with Rattus norvegicus [1] was found to be 20 mmHg. Moreover, at Endothelin-1 receptor, the IC50 came to 0.8 nM.
As to `CC(C)c1ccc(-c2c(NS(=O)(=O)NCc3ccccc3)ncnc2OCCOc2ncc(Br)cn2)cc1`, the IC50 at Endothelin-1 receptor is 3.6 nM.
The same measure, in the same setting: the result for `COc1ccccc1Oc1c(NS(=O)(=O)NCc2ccccc2)nc(-c2ncccn2)nc1OCCOc1ncc(Br)cn1` reads 1.9 nM.
For the compound `CCCCS(=O)(=O)Nc1ncnc(OCCOc2ncc(Br)cn2)c1-c1ccc(Br)cc1`, the “Fall in mean arterial blood pressure” value with Rattus norvegicus [1] stood at 22 mmHg. For the same compound, at Endothelin-1 receptor, the IC50 amounted to 1.1 nM.
Regarding `CCCNS(=O)(=O)Nc1ncnc(OCCOc2ncc(Br)cn2)c1Oc1cccc(OC)c1`, the “Fall in mean arterial blood pressure” value in the data set on Rattus norvegicus [1] turned out to be 15 mmHg. In addition, the IC50 at Endothelin-1 receptor came to 1.9 nM.
On to `COc1ccccc1Oc1c(NS(C)(=O)=O)nc(-c2ncccn2)nc1OCCO`, for which the IC50 at Endothelin-1 receptor was 4530 nM.
For `COc1ccccc1Oc1c(NS(=O)(=O)N2CCOCC2)nc(-c2ncccn2)nc1OCCOc1ncc(Br)cn1`, the IC50 at Endothelin-1 receptor is 187 nM.
Still for that read-out and setting: the result for `COc1ccccc1Oc1c(NS(=O)(=O)NCc2ccccc2)nc(-c2ccncc2)nc1OCCOc1ncc(Br)cn1` reads 3.4 nM.
As to `COc1cccc(Oc2c(NS(=O)(=O)NCc3ccccc3)ncnc2OCCOc2ncc(Br)cn2)c1`, the “Fall in mean arterial blood pressure” value in the data set with Rattus norvegicus [1] is given as 10 mmHg. Also, the result in the data set with Rattus norvegicus [2] was inactive. For the same compound, the IC50 at Endothelin-1 receptor stood at 1 nM.
With `CCCCS(=O)(=O)Nc1nc(-c2ncccn2)nc(OCCOc2ncc(Br)cn2)c1Oc1ccccc1OC`, on Endothelin-1 receptor, the half-maximal inhibitory concentration (IC50) was 4.3 nM.
Same read-out and setting: the result for `COc1nc(NS(=O)(=O)NCc2ccccc2)c(Oc2ccccc2OC)c(OCCOc2ncc(Br)cn2)n1` reads 40 nM.
For `COc1ccc(Cl)c(Oc2c(NS(=O)(=O)NCc3ccccc3)ncnc2OCCOc2ncc(Br)cn2)c1`, the “Fall in mean arterial blood pressure” value in the data set with Rattus norvegicus [1] amounted to 24 mmHg. Also, the outcome in the data set on Rattus norvegicus [2] was inactive. For the same compound, on Endothelin-1 receptor, the IC50 was found to be 1.4 nM.
On to `COc1ccccc1Oc1c(NS(C)(=O)=O)nc(-c2ncccn2)nc1OCCOc1ncccn1`, for which the IC50 on Endothelin-1 receptor was found to be 739 nM.
Still for that read-out and setting: as for `CCc1ccc(-c2c(NS(=O)(=O)NCc3ccccc3)ncnc2OCCOc2ncc(Br)cn2)cc1`, the figure is 2.3 nM; as for `CCCCNS(=O)(=O)Nc1nc(-c2ncccn2)nc(OCCOc2ncc(Br)cn2)c1Oc1ccccc1OC`, 1.7 nM; as for `CCS(=O)(=O)Nc1nc(-c2ncccn2)nc(OCCOc2ncc(Br)cn2)c1Oc1ccccc1OC`, 14 nM.
For `O=S(=O)(Nc1ncnc(OCCOc2ncc(Br)cn2)c1-c1ccc(Br)cc1)N1CCOCC1`, the IC50 at Endothelin-1 receptor worked out at 2.8 nM.
`COc1ccccc1Oc1c(NS(=O)(=O)NCc2ccccc2)nc(C2CC2)nc1OCCOc1ncc(Br)cn1`: the IC50 at Endothelin-1 receptor came out at 14 nM.
Consider `CN(Cc1ccccc1)S(=O)(=O)Nc1ncnc(OCCOc2ncc(Br)cn2)c1-c1ccc(Br)cc1`, for which, at Endothelin-1 receptor, the IC50 stood at 4.3 nM.
As to `COc1cnc(OCCOc2nc(-c3ncccn3)nc(NS(=O)(=O)CCc3ccccc3)c2Oc2ccccc2OC)nc1`, the IC50 on Endothelin-1 receptor was found to be 3.2 nM.
For `COc1ccccc1Oc1c(NS(=O)(=O)CCc2ccccc2)nc(-c2ncccn2)nc1OCCOc1ncccn1`, the IC50 on Endothelin-1 receptor stood at 8 nM.
The same measure, in the same setting: the result for `COCCOc1nc(NS(=O)(=O)NCc2ccccc2)c(Oc2ccccc2OC)c(OCCOc2ncc(Br)cn2)n1` reads 6.9 nM.
For `COc1ccccc1Oc1c(NS(=O)(=O)CCc2ccccc2)nc(-c2ncccn2)nc1OCCOc1ncc(C)cn1`, at Endothelin-1 receptor, the IC50 turned out to be 17.8 nM.
The same measure, in the same setting: the result for `O=S(=O)(NCc1ccccc1)Nc1ncnc(OCCOc2ncc(Br)cn2)c1-c1ccccc1` reads 6.8 nM.
As for `CCCNS(=O)(=O)Nc1ncnc(OCCOc2ncc(Br)cn2)c1Oc1cc(OC)ccc1Cl`, the “Fall in mean arterial blood pressure” value with Rattus norvegicus [1] came out at 21 mmHg. Further, the IC50 on Endothelin-1 receptor came to 0.4 nM.
Turning to `CC[C@H](C)[C@H](NC(=O)[C@@H](NC(=O)[C@H](CC(=O)O)NC(=O)[C@H](CCC(N)=O)NC(=O)[C@H](Cc1cnc[nH]1)NC(=O)[C@@H]1CSSC[C@H](N)C(=O)N[C@@H]([C@@H](C)O)C(=O)N[C@H]2CSSC[C@H](NC(=O)[C@H](CCC(=O)O)NC(=O)[C@H](CCC(=O)O)NC(=O)[C@H](CC(=O)O)NC(=O)[C@H]([C@@H](C)O)NC(=O)[C@H](CCSC)NC(=O)[C@H](CC(=O)O)NC(=O)[C@H](CC(N)=O)NC2=O)C(=O)N[C@@H](CC(C)C)C(=O)N[C@@H](CC(N)=O)C(=O)N[C@@H](Cc2ccccc2)C(=O)N1)C(C)C)C(=O)N[C@@H](Cc1c[nH]c2ccccc12)C(=O)O` [SARAFOTOXIN 6C], the IC50 at Endothelin-1 receptor is over 100 nM.
The same measure, in the same setting: the result for `CCCNS(=O)(=O)Nc1nc(-c2ncccn2)nc(OCCOc2ncc(Br)cn2)c1Oc1ccccc1OC` reads 3.8 nM.
For the compound `O=S(=O)(NCc1ccccc1)Nc1ncnc(OCCOc2ncc(Br)cn2)c1-c1ccc(Br)cc1`, the “Fall in mean arterial blood pressure” value in the data set on Rattus norvegicus [1] stood at 14 mmHg. The outcome in the data set on Rattus norvegicus [2] was inactive. In addition, the IC50 at Endothelin-1 receptor came to 1.6 nM.
For the compound `CNS(=O)(=O)Nc1ncnc(OCCOc2ncc(Br)cn2)c1-c1ccc(Br)cc1`, the “Fall in mean arterial blood pressure” value in the data set on Rattus norvegicus [1] is given as 21 mmHg. The IC50 at Endothelin-1 receptor stood at 1.7 nM.
With `CCNS(=O)(=O)Nc1nc(-c2ncccn2)nc(OCCOc2ncc(Br)cn2)c1Oc1ccccc1OC`, the IC50 on Endothelin-1 receptor turned out to be 9.9 nM.
As to `COc1cc(OC)nc(OCCOc2nc(-c3ncccn3)nc(NS(=O)(=O)CCc3ccccc3)c2Oc2ccccc2OC)n1`, at Endothelin-1 receptor, the IC50 worked out at 4780 nM.
The same measure, in the same setting: as for `COc1ccccc1Oc1c(NS(=O)(=O)CCc2ccccc2)nc(-c2ncccn2)nc1OCCO`, the figure is 25.7 nM.
As for `COc1ccccc1Oc1c(NS(=O)(=O)NCc2ccccc2)ncnc1OCCOc1ncc(Br)cn1`, the IC50 on Endothelin-1 receptor amounted to 6.9 nM.
For the compound `CNS(=O)(=O)Nc1nc(-c2ncccn2)nc(OCCOc2ncc(Br)cn2)c1Oc1ccccc1OC`, on Endothelin-1 receptor, the IC50 came to 7.9 nM.
Same read-out and setting: as for `COc1ccccc1Oc1c(NS(=O)(=O)CCc2ccccc2)nc(-c2ncccn2)nc1OCCOc1ncc(Br)cn1`, the figure is 2.2 nM; as for `CC(C)C[C@@H]1NC(=O)[C@@H](C(C)C)NC(=O)[C@@H]2CCCN2C(=O)[C@@H](CC(=O)O)NC(=O)[C@@H](Cc2c[nH]c3ccccc23)NC1=O` [BQ-123] (cyclo(L[dW][dD]P[dV])), 20.5 nM.
Still for that read-out and setting: as for `CCCS(=O)(=O)Nc1nc(-c2ncccn2)nc(OCCOc2ncc(Br)cn2)c1Oc1ccccc1OC`, the figure is 9.4 nM; as for `COc1ccccc1Oc1c(NS(=O)(=O)CCc2ccccc2)nc(-c2ncccn2)nc1OCCOc1ncc(C(F)(F)F)cn1`, 3 nM; as for `COc1ccccc1Oc1c(NS(C)(=O)=O)nc(-c2ncccn2)nc1OCCOc1ncc(Br)cn1`, 113 nM.
Still for that read-out and setting: the result for `NS(=O)(=O)Nc1ncnc(OCCOc2ncc(Br)cn2)c1-c1ccc(Br)cc1` [APROCITENTAN] reads 3.4 nM; that for `COc1ccccc1Oc1c(NS(=O)(=O)NCc2ccccc2)nc(-c2cnccn2)nc1OCCOc1ncc(Br)cn1`, 2.1 nM.
Consider `COc1ccccc1Oc1c(NS(=O)(=O)CCc2ccccc2)nc(-c2ncccn2)nc1OCCOc1ncc(C2CC2)cn1`, for which the IC50 on Endothelin-1 receptor came out at 7.7 nM.
Regarding `CCCCNS(=O)(=O)Nc1ncnc(OCCOc2ncc(Br)cn2)c1-c1ccc(Br)cc1`, the “Fall in mean arterial blood pressure” value in the data set on Rattus norvegicus [1] turned out to be 16 mmHg. The Cmax with Rattus norvegicus [3] turned out to be 4100 ng/mL. The IC50 at Endothelin-1 receptor was 0.3 nM.
Regarding `CCCNS(=O)(=O)Nc1ncnc(OCCOc2ncc(Br)cn2)c1-c1ccc(Cl)cc1`, at Endothelin-1 receptor, the IC50 worked out at 1.2 nM.
Still for that read-out and setting: the result for `Cc1ccc(-c2c(NS(=O)(=O)NCc3ccccc3)ncnc2OCCOc2ncc(Br)cn2)cc1` reads 0.7 nM.
On the same count and under the same terms, as for `COc1ccccc1Oc1c(NS(=O)(=O)CCc2ccccc2)nc(-c2ncccn2)nc1OCCOc1ncc(Cl)cn1`, the figure is 2.8 nM; as for `COc1ccccc1Oc1c(NS(=O)(=O)Cc2ccccc2)nc(-c2ncccn2)nc1OCCOc1ncc(Br)cn1`, 73 nM.
As for `CCCS(=O)(=O)Nc1ncnc(OCCOc2ncc(Br)cn2)c1-c1ccc(Br)cc1`, the “Fall in mean arterial blood pressure” value with Rattus norvegicus [1] was 25 mmHg. For the same compound, the IC50 at Endothelin-1 receptor is 2.2 nM.
With `COc1ccccc1Oc1c(NS(=O)(=O)N(C)Cc2ccccc2)nc(-c2ncccn2)nc1OCCOc1ncc(Br)cn1`, the IC50 on Endothelin-1 receptor amounted to 7 nM.
Still for that read-out and setting: the result for `COc1ccccc1Oc1c(NS(=O)(=O)c2ccccc2)nc(-c2ncccn2)nc1OCCOc1ncc(Br)cn1` reads 10.4 nM; that for `COc1ccccc1Oc1c(NS(=O)(=O)c2ccc(C(C)(C)C)cc2)nc(-c2ncccn2)nc1OCCOc1ncc(Br)cn1`, 1.5 nM.
Take `COc1ccccc1Oc1c(NS(=O)(=O)c2ccc(C(C)(C)C)cc2)nc(-c2ncccn2)nc1OCCOc1ncccn1`: the IC50 at Endothelin-1 receptor is 4.3 nM.
As to `COc1ccccc1Oc1c(NS(=O)(=O)CCCc2ccccc2)nc(-c2ncccn2)nc1OCCOc1ncc(Br)cn1`, the IC50 on Endothelin-1 receptor was 6.7 nM.
As for `COc1ccccc1Oc1c(NS(=O)(=O)NCc2ccccc2)nc(N2CCOCC2)nc1OCCOc1ncc(Br)cn1`, the IC50 on Endothelin-1 receptor turned out to be 1.4 nM.
For the compound `O=S(=O)(NCc1ccccc1)Nc1ncnc(OCCOc2ncc(Br)cn2)c1-c1ccc(Cl)cc1`, in the data set on Rattus norvegicus [1], the “Fall in mean arterial blood pressure” value is recorded as 18 mmHg. Further, the outcome in the data set with Rattus norvegicus [2] was inactive. In addition, on Endothelin-1 receptor, the IC50 came out at 1.4 nM.
